GI50 and TGI data for 18 molecules are collected here from PubChem BioAssay (NCI).

“And” between values parts separate entries of the source, which are not always exact repeats. Identical values can stand only once.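 Test compounds were applied to cells in 96-well plates for 48 hours at 5 doses. GI50 marks 50% less growth. Definition used: TGI = concentration required for complete inhibition of growth.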 Bounds are passed on as bounds.

Holding throughout (assay): DTP human tumour cell line panel, 48 h
The subject of test [1] is HCT-15 colon.
The subject of test [2] is OVCAR-5 ovarian.
Test [3] deals with SN12C renal.
Test [4] deals with SW-620 colon.
Test [5] relates to HT29 colon.
Test [6] concerns HCC-2998 colon.
Test [7] deals with HOP-62 NSCLC.
For test [8], the system named is NCI-H226 lung.
In test [9] the test system is NCI-H460 lung.
Test [10] concerns UO-31 renal.

What is called GI50 is the concentration at which growth is held to half of that of the control. The TGI is the concentration giving total growth inhibition.

In the case of `O=C(c1ccccc1)C1OC1c1ccc([N+](=O)[O-])cc1` (configuration not stated), the GI50 is 4.28 µM in [1]; 19.6 µM in test [2]; 10.1 µM in test [3]; 2.42 µM in test [4]; 3.75 µM in test [5]; 11 µM in test [6]. The GI50 in [7] was 4.76 µM; in test [8] it was 18.1 µM; in test [9], 10 µM; in test [10] it was 5.94 µM. The TGI is greater than 100 µM in test [1]; 56.9 µM in test [2]; greater than 100 µM in test [3]; 6.6 µM in test [4]; 14.5 µM in test [5]; 26.1 µM in test [6]. Also, the total growth inhibition concentration (TGI) came out at 65.9 µM in [7], 60.1 µM in test [8], 40.2 µM in test [9] and 93.2 µM in [10].
With `C[C@@]12CCC[C@@](C)(C(=O)O)C1CC[C@]13C[C@@](O)(CO)[C@](O)(CCC12)C3` (some centres not stated), the GI50 in test [1], in test [2], in test [3], in test [4], in [5] and in test [6] was greater than 100 µM in each case. Further, the GI50 in [7], in [8], in [9] and in test [10] was greater than 100 µM throughout. Also, the concentration for total growth inhibition (TGI) in [1], in test [2], in [3], in [4], in [5] and in test [6] was greater than 100 µM each time. Further, the TGI in test [7], in test [8], in test [9] and in test [10] was greater than 100 µM throughout.
With `C=C1CCC2C3(C)COC(c4ccccc4)OC3CCC2(C)C1/C=C/C1=CCOC1=O` (configuration not stated), the GI50 in [1] was 2.41 µM; in test [2], 9.58 µM; in [3], 3.82 µM; in test [4], 2.96 µM; in [5], 3.23 µM; in test [6], 7.75 µM. Besides, the GI50 in test [7] was 22.9 µM; in test [8], 3.81 µM; in [9], 9.29 µM; in [10], 4.88 µM. Further, the total growth inhibition concentration (TGI) in test [1] worked out at 11.5 µM; in test [2], 22 µM; in test [3] it was 15.9 µM; in test [4] it was 10 µM; in [5], 10.7 µM; in [6] it was 19.4 µM. In addition, the TGI is 46.7 µM in [7], 13.5 µM in [8], 35.9 µM in test [9] and 18.2 µM in [10].
With `C=CC(=O)Nc1cc(C)ccc1Nc1nc(Nc2cc(OC)ncc2C)ncc1C(F)(F)F`, the GI50 in [1] was 1.05 µM; in [2] it was 0.227 µM; in test [3], 0.714 µM; in test [4] it was 0.322 µM; in test [5] it was 0.122 µM; in test [6], 0.261 µM. For the same molecule, the GI50 in test [7] was 0.741 µM; in [8], 0.901 µM; in [9], 2.13 µM; in [10] it was 0.214 µM. Moreover, the TGI in test [1] is greater than 28.5 µM; in [2], 2.14 µM; in test [3] it was greater than 100 µM; in [4], 3.23 µM; in [6], 4.34 µM; in [7], greater than 66.7 µM. Besides, the total growth inhibition concentration (TGI) stood at 4.39 µM in test [8], 11.4 µM in test [9] and 2.27 µM in test [10].
For `CC(=O)c1c(C)[nH]c(-c2nc3ccc(N4CCN(C)CC4)cc3[nH]2)c1-c1ccc(N(C)C)cc1`, the GI50 in test [1] is 0.478 µM; in [2], 1.8 µM; in test [3], 1.76 µM; in [4] it was 2.15 µM; in test [5], 0.299 µM; in test [6] it was 1.06 µM. The GI50 in [7] was 0.56 µM; in test [8], 1.95 µM; in [9] it was 2.76 µM; in test [10] it was 0.211 µM. Besides, the TGI in test [1] was 14.1 µM; in test [2], greater than 65 µM; in test [3] it was 43.1 µM; in test [4], 25.5 µM; in test [5], 19.4 µM; in test [6] it was 8.38 µM. The total growth inhibition concentration (TGI) was 28.4 µM in [7], 32.9 µM in [8], greater than 56.2 µM in [9] and 7.33 µM in test [10].
Regarding `O=Nc1ccc(NO)c2ccccc12`, the GI50 in [1] is 14.9 µM; in test [2] it was 18.6 µM; in test [3], 2.68 µM; in test [4], 3.87 µM; in [5] it was 5.96 µM; in test [6], 17.4 µM. The GI50 in [7] is 14.6 µM; in [8], 16.8 µM; in test [9], 21.7 µM; in test [10], 13.2 µM. Also, the TGI in [1] is 31.7 µM; in [2], 35.5 µM; in [3] it was 11 µM; in test [4], 21.5 µM; in test [5], 24.7 µM; in test [6], 31.7 µM. Also, the TGI was found to be 27.9 µM in test [7], 38.4 µM in [8], 51.3 µM in test [9] and 26.4 µM in test [10].
As to `COc1cc(N(C)C)c(OC)cc1/C=C\c1ccnc2ccccc12`, the TGI in test [1], in test [2], in [3], in test [4], in test [5] and in test [6] was greater than 10 µM throughout. Besides, the concentration for total growth inhibition (TGI) in [7], in test [8], in test [9] and in [10] was greater than 10 µM in each case.
In the case of `CCN(CC)CCCNCc1cc(-c2ccccc2)nc2ccccc12`, the GI50 in [1] is 3.24 µM; in [2] it was 37.9 µM; in test [3], 4.52 µM; in [4], 2.75 µM; in test [5], 2.77 µM; in test [6] it was 14.9 µM. Moreover, the GI50 in test [7] was 8.27 µM; in test [8] it was 19.8 µM; in test [9] it was 33.2 µM; in test [10] it was 3.96 µM. Further, the total growth inhibition concentration (TGI) is 45.8 µM in test [1]; greater than 100 µM in test [2]; greater than 100 µM in test [3]; 21.9 µM in [4]; 10.6 µM in test [5]; 31.1 µM in test [6]. For the same molecule, the TGI is greater than 100 µM in test [7], greater than 100 µM in test [8], greater than 100 µM in test [9] and 50.5 µM in [10].
As to `O=C(O)CCC(N=Cc1nc(-c2ccccc2)oc1O)C(=O)O` (configuration not stated), the concentration for total growth inhibition (TGI) in [1], in [2], in test [3], in [4], in [5] and in [6] was greater than 100 µM throughout. The TGI in test [7], in test [8], in test [9] and in [10] was greater than 100 µM in each case.
As for `CNC(=O)c1ccccc1Nc1nc(Nc2cc(OC)c(OC)c(OC)c2)ncc1Br`, the 50% growth inhibitory concentration (GI50) was 0.0283 µM in test [1]; 0.0321 µM in [2]; 0.0366 µM in test [3]; 0.0241 µM in [4]; 0.0161 µM in test [5]; 0.027 µM in test [6]. The GI50 was 0.0349 µM in test [7], 0.0265 µM in test [8], 0.0291 µM in test [9] and less than 0.014 µM in [10]. Besides, the concentration for total growth inhibition (TGI) turned out to be 7.75 µM in test [1]; 31.7 µM in test [2]; 3.3 µM in test [3]; 5.76 µM in test [4]; 12.7 µM in test [5]; 1.54 µM in test [6]. Moreover, the TGI in [7] is 2.31 µM; in [8], 0.214 µM; in test [9] it was 1.37 µM; in [10], 0.0849 µM.
Turning to `Cn1c2c(c3ccc([N+](=O)[O-])cc3c1=O)C(=O)c1ccccc1-2`, the GI50 in test [1], in test [2], in test [3], in test [4], in [5] and in test [6] was greater than 100 µM throughout. Also, the GI50 in test [7], in test [8], in [9] and in [10] was greater than 100 µM throughout. Also, the TGI in [1], in test [2], in test [3], in test [4], in [5] and in test [6] was greater than 100 µM in each case. Further, the TGI in test [7], in test [8], in [9] and in test [10] was greater than 100 µM in each case.
As for `Cn1cnc([N+](=O)[O-])c1Sc1nc(N)nc2c1ncn2C1CC(O)C(CO)O1` (configuration not stated), the TGI in [1], in test [2], in test [3], in test [4], in test [5] and in test [6] was greater than 100 µM each time. Besides, the TGI was greater than 100 µM in test [7], 98.2 µM in test [8], greater than 40 µM in [9] and 44.9 µM in test [10].
Take `CS(=O)(=O)CCc1cccc(C(=O)c2cnn(-c3ccc(F)cc3)c2N)c1`: the GI50 in test [1], in test [2], in test [3], in test [4], in test [5] and in test [6] was greater than 25 µM in each case. Further, the GI50 in test [7], in test [8], in [9] and in [10] was greater than 25 µM each time. In addition, the TGI in test [1], in test [2], in test [3], in test [4], in [5] and in [6] was greater than 25 µM each time. Also, the concentration for total growth inhibition (TGI) in test [7], in [8], in [9] and in test [10] was greater than 25 µM in each case.
Consider `O=c1c(Br)cc2nc3ccccc3sc-2c1Br`, for which the TGI in test [1], in test [2], in [3], in [4], in test [5] and in test [6] was greater than 100 µM each time. Besides, the TGI in test [7], in [8], in test [9] and in test [10] was greater than 100 µM each time.
For the molecule `CCC/C(=N\NC(=S)N1CC2CCC(CC2)C1)c1ccccn1`, the concentration for total growth inhibition (TGI) in test [1] was 0.716 µM and 2.91 µM; in [2], 5.64 µM and 3 µM; in test [3] it was 4.54 µM and 4.73 µM; in test [4], 0.555 µM and 0.221 µM; in test [5], 1.65 µM and 2.51 µM; in test [6], 1.48 µM and 1.86 µM. Further, the concentration for total growth inhibition (TGI) is 4.92 µM and 2.7 µM in test [7]; 4.79 µM and 2.58 µM in [8]; 0.927 µM in [9]; 4.26 µM and 1.79 µM in [10]. The GI50 in test [2] was 1.25 µM; in test [3], 0.161 µM; in [5] it was 0.0244 µM; in [6], 0.244 µM; in test [7] it was 1.16 µM; in test [8] it was 1.13 µM. Moreover, the concentration for 50% growth inhibition (GI50) in test [10] is 0.124 µM.
Turning to `C/C1=C/C(=O)O[C@@H]2C[C@@H](CC[C@H](C)/C=C\C=C\CC1)O[C@@](O)([C@@H]1CSC(=O)N1)C2`, the TGI in test [1] is greater than 10 µM; in [2] it was greater than 10 µM; in test [3], greater than 10 µM; in [5], greater than 10 µM; in test [6] it was greater than 10 µM; in test [7], 0.724 µM. The total growth inhibition concentration (TGI) is greater than 2.9 µM in test [8], greater than 10 µM in [9] and 1.25 µM in test [10].
For `CC(C)([NH-])CO.CC(C)([NH-])CO.[Cl][Cd][Cl]`, the GI50 is 20.3 µM in [1]; 16.8 µM in test [2]; 18.6 µM in [4]; 28.8 µM in [5]; 19.3 µM in [6]; greater than 100 µM in [7]. Also, the GI50 in [8] is 7.84 µM; in [9] it was 11.3 µM; in test [10], 35.4 µM. Further, the total growth inhibition concentration (TGI) in test [1] was 41.4 µM; in test [2], 30.5 µM; in test [4] it was 38.9 µM; in test [5], 67.1 µM; in test [6], 59.5 µM; in test [7], greater than 100 µM. The concentration for total growth inhibition (TGI) was 20.9 µM in test [8], 24.6 µM in test [9] and greater than 100 µM in test [10].
For `COc1ccc2ccccc2c1C1NC(=O)c2ccccc2N1` (configuration not stated), the concentration for total growth inhibition (TGI) was 6.21 µM in test [1]; greater than 31.3 µM in [2]; greater than 82.6 µM in test [3]; greater than 37.5 µM in test [4]; 5.92 µM in test [6]; greater than 100 µM in test [7]. Besides, the total growth inhibition concentration (TGI) turned out to be 13.4 µM in test [8], 29.6 µM in [9] and 71.2 µM in test [10].
